Data as given in US6600076B1, “Cleavable, water-soluble surfactants” (The Regents of the University of California, priority 1999, dated 2003).
Read-outs that look alike come from different tables or passages of the source.

Assays:
[1] = Surface tension of aqueous solutions, maximum bubble pressure tensiometer, incl. reduction with DTT; format: physicochemical; conditions: for effect on surface tension of water: 10 mM DTT and 1 mM oxidized DTT added to water
Source text: (Menger, F. M. et al., J. Am. Chem. Soc. 115:10083-10090 (1993)). […] The surface tensions of the reacting system reported herein correspond, therefore, to a local steady state at the surface of the solution. In the absence of reaction, these surface tensions are equilibrium tensions.

[2] = Surface tension after oxidation with NaOCl or bleach (pendant drop); format: physicochemical; conditions: for surface tension: 4 mM
Procedure: To test the idea that oxidation of 1 by NaOCl would transform 1 into less surface-active products, changes in surface tensions that accompanied additions of aliquots of NaOCl to solutions of 1 were measured. The amount of OCl^− consumed by reaction with 1 was also determined by iodometry. The initial surface tension of the 2 mM solution (using the pendant drop technique) was measured to be 48 mN/m. […] The addition of subsequent aliquots of NaOCl, however, caused the surface tension to increase to ˜71 mN/m. […] In this case, only ˜8% of the OCl^− added remained unreacted.
The oxidation of 1 using NaOCl (6:1 ratio of NaOCl to 1) was performed in 50 mM phosphate buffers at three different pHs (pH 3, 6.9, and 11). Following the addition of NaOCl to aqueous solutions of 1 at pH 3 and pH 6.9, the surface tensions of the solutions were measured to increase from ˜48 mN/m to ˜71 mN/m within ˜5 min (FIG. 17). The surface tension was also determined to increase from ˜48 mN/m to ˜71 mN/m upon addition of NaOCl to an aqueous solution of 1 at pH 11. In this case, however, it took ˜15 min for the surface tension to increase to 71 mN/m. […] Therefore disulfide-based surfactants can form the basis of chemodegradable surfactant system that can be used over a wide pH range.
Household bleach was added (6:1 ratio of NaOCl to 1) to a 2 mM solution of 1 in pH 6.9 buffer. Upon addition of bleach to 1, the surface tension of the solution increased from 48 mN/m to ˜71 mN/m in ˜3 min (FIG. 18A), a result similar to our earlier observations based on the addition of NaOCl to 1. […] A control experiment was performed in which the household bleach was added to the phosphate buffer and found not to change the surface tension.

[3] = Interfacial tension between dodecane and aqueous solution on oxidation by NaOCl; format: physicochemical
[4] = Surface tension, pendant drop; conditions: 50 mM phosphate buffer pH 6.9, concentrations around or above 10 mM
[5] = cited from earlier work
Cyclic voltammetry = format: physicochemical; conditions: 5 mM of 1 or 10 mM of 2, 50 mM phosphate buffer pH 6.9, SCE reference
Procedure: Solutions were prepared in 50 mM phosphate buffer, pH 6.9. Application of potential was controlled using a potentiostat (Pine Instruments, Grove City, Pa.), and the experimental set-up involved using a carbon felt working electrode with cobalt phthalocyanine (catalyst) evaporated onto the surface of the electrode. A platinum counter electrode and SCE reference electrode were also used.

[6] = Stability of solid and of aqueous solutions (surface tension over time); format: physicochemical; conditions: 1 mM solution in 50 mM phosphate buffer (pH 6.9)
[7] = DTT (10 equivalents) added
Procedure: This mixture was sonicated on a setting of 50 for a period of 10 s and then vortexed for 1 min to ensure that the emulsion was thoroughly mixed.

[8] = 10 mM of 1, 5 wt. % dodecane, NaOCl 6:1
Procedure: The mixture was sonicated on a setting of 2 for a period of 20 s and then vortexed for 1 min to ensure that the emulsion was thoroughly mixed.
The disruption of the emulsion was determined by the observation of phase separation in the reaction vial.
A single emulsion was first divided into two vials. […] The second vial was used as a control.

[9] = Equilibrium surface tension, Wilhelmy plate, borate buffer; format: physicochemical; conditions: 100 mM borate buffer, pH 9.2
Procedure: Disulfide-containing surfactants with anionic head groups were synthesized. […] Equilibrium surface tensions were measured using a Kruss K10T tensiometer with a platinum Wilhelmy plate. Surfactant solutions were prepared in a 100 mM borate buffer, pH 9.2.

## O[C@H](CS)[C@H](O)CS (racemic) [DTT, dithiothreitol, reference compound]
[1]
  effect on surface tension of water: did not result in a change in surface tension

## CCCCCCCCCCCC[N+](C)(C)C.[Br-] [DTAB, dodecyltrimethylammonium bromide, reference compound]
[2]; 4 mM solution, before NaOCl
  surface tension of the initial solution: ~52 mN/m
[2]; first equivalent of NaOCl
  surface tension: ~43 mN/m
[2]; second equivalent of NaOCl
  surface tension: ~50 mN/m
[2]; up to six equivalents of NaOCl
  surface tension: 45 mN/m

## OC1CSSCC1O (centres unmarked) [oxidized DTT, reference compound]
[1]
  effect on surface tension of water: did not result in a change in surface tension

## O=C(O)CCCCCCCS [compound 4, 8-mercaptooctanoic acid]
[3]; 10 mM of 1 oxidized
  surface pressure π at the interface of dodecane and water: 22.5 mN/m
[3]; concentration of 10 mN (printed)
  surface pressure π at the surface of water: 2 mN/m
[4]
  limiting surface tension: ~47 mN/m
[2]; up to a concentration of 10 mM, 6:1 NaOCl to 1
  surface activity of the oxidation product: surface-inactive

## CCCCCCCCCCCCOS(=O)(=O)[O-].[Na+] [SDS, sodium dodecyl sulfate]
[5]; 1 mM solution
  surface pressure at an air-aqueous interface: 7.5 mN/m
  surface pressure at the heptadecane-aqueous interface: 15.2 mN/m

## C[N+](C)(C)CCCCCCCCS.[Br-] [compound 2, (8-mercaptooctyl)trimethylammonium bromide]
[1]; 2 mM solution of 2, Gibbs adsorption equation
  average area occupied at the surface: > 500 A^2/molecule
[1]; 50 mM phosphate buffer, pH 6.9, 25° C.
  threshold concentration of surfactant causing a measurable reduction in surface tension: ~1 mM
Cyclic voltammetry
  oxidation peak: 0.55 V

## CCCCCCCCCCCCCCCC[N+](C)(C)C.[Br-] [CTAB, cetyltrimethylammonium bromide]
[5]; in 0.1 M lithium sulfate
  limiting surface tension (γlim): 39 mN/m
[6]
  increase in surface tension over 24 h: ~0.5 mN/m
  increase in surface tension over 5 days: 1 mN/m
  surface tension: ~41 mN/m

## C[N+](C)(C)CCCCCCCCCCCC[N+](C)(C)C.[Br-].[Br-] [dodecane-1,12-bis(trimethylammoniumdibromide)]
[5]; dissolved into water
  limiting surface tension: 38 mN/m

## bis(8-trimethylammonium bromide)dioctyl disulfide [compound 1]
[3]; 10 mM, 6 equivalents of NaOCl
  time for the interfacial tension to increase: ≤ 3 min
[7]
  completion of phase separation of the emulsion: ~120 min
[8]
  completion of phase separation of the emulsion: 45 min
  evidence of phase separation of the emulsion: ≤ 10 min
[2]
  duration of the rapid oxidation: 2 to 3 min
[2]; NaOCl 6:1, pH 3 and pH 6.9
  time for the surface tension to increase: ≤ 5 min
[2]; NaOCl 6:1, pH 11
  time for the surface tension to increase: ~15 min
[2]; household bleach, 6:1, pH 6.9
  time for the surface tension to increase: ~3 min

## 1,16-dicarboxylic dioctyl disulfide [compound 3]
[9]
  differences in equilibrium surface tensions between 3 and 4 at a specified concentration: up to 16 mN/m
